Data published in US12565522B2, “Micropeptide HMMW and application thereof” (NANJING ANJI BIOTECHNOLOGY CO., LTD., priority 2019, dated 2026).

How the values were obtained:
Format in all cases: cell-based, human
[1] = system: A431 cells of skin cancer; test: cells; settings: Homo sapiens, A-431, dose 10 μg/ml, 48 h, positive control, read-out: proliferation inhibition rate
Description: (§1) After SCC4 cells of head and neck cancer, SW579 cells of thyroid cancer, A549 cells of lung cancer, TE13 cells of esophageal squamous cell carcinoma, MGC803 cells of stomach cancer, MDA-MB-231 cells of breast cancer, UOK262 cells of kidney cancer and A431 cells of skin cancer of human were cultured in a 37 DEG C. 5% CO2 incubator until the density was 90%, they were digested and collected by trypsin, the cells were re-suspended in a culture solution and counted under a microscope, the concentration of the cells was adjusted to 3.0×10^4 cells/mL, and the cell suspension was inoculated to 96-well plates, 100 μL per well, and cultured in a 37 DEG C. 5% CO2 incubator overnight. After the cells were completely adherent, different doses of micropeptides HMMW I to IX were added as drug groups, taxol was used as a positive control group, and the culture solution without any drug was used as a blank control group. They were diluted with the culture solution till predetermined concentrations. The diluted solutions were added to 96-well plates, respectively, 100 μL per well, and incubated in a 37 DEG C. 5% CO2 incubator for 48 h. 20 μL of 5 mg/mL MTT was added to each well of the 96-well plates, and the culture was continued for 4 h. The culture medium was sucked away, and 100 μL of DMSO was added to each well for dissolution. Absorbance was detected by ELIASA at detection wavelength 570 nm and reference wavelength 630 nm, and proliferation inhibition (PI) was calculated according to Formula PI (%)=1−drug group/negative group. The test was independently repeated three times. The results obtained from the test were expressed with mean±SD and statistical t test was done. *P<0.05 means significant difference, and **P<0.01 means very significant difference.

[2] = system: A549 cells of lung cancer; test: cells; settings: Homo sapiens, dose 10 μg/ml, 48 h, positive control, read-out: proliferation inhibition rate
Description: as §1

[3] = system: MDA-MB-231 cells of breast cancer; test: cells; settings: Homo sapiens, dose 10 μg/ml, 48 h, positive control, read-out: proliferation inhibition rate
Description: as §1

[4] = system: MGC803 cells of stomach cancer; test: cells; settings: Homo sapiens, MGC-803, dose 10 μg/ml, 48 h, positive control, read-out: proliferation inhibition rate
Description: as §1

[5] = system: SCC4 cells of head and neck cancer; test: cells; settings: Homo sapiens, SCC-4, dose 10 μg/ml, 48 h, positive control, read-out: proliferation inhibition rate
Description: as §1

[6] = system: SW579 cells of thyroid cancer; test: cells; settings: Homo sapiens, dose 10 μg/ml, 48 h, positive control, read-out: proliferation inhibition rate
Description: as §1

[7] = system: TE13 cells of esophageal squamous cell carcinoma; test: cells; settings: Homo sapiens, dose 10 μg/ml, 48 h, positive control, read-out: proliferation inhibition rate
Description: as §1

[8] = system: UOK262 cells of kidney cancer; test: cells; settings: Homo sapiens, UOK 262, dose 10 μg/ml, 48 h, positive control, read-out: proliferation inhibition rate
Description: as §1

[9] = system: A431 cells of skin cancer; test: transwell migration test; settings: dose 10 (μM), 24 h
Description: (§2) Inoculate SCC4 cells of head and neck cancer, SW579 cells of thyroid cancer, A549 cells of lung cancer, TE13 cells of esophageal squamous cell carcinoma, MGC803 cells of stomach cancer, MDA-MB-231 cells of breast cancer, UOK262 cells of kidney cancer, and A431 cells of skin cancer of human to transwell cells, 100 μL per well, and meanwhile add micropeptides HMMW I to IX at different doses to every cell. Add 0.6 mL of complete medium containing 10% FBS to the transwell cells to stimulate cell migration, and culture in 5% CO2 at 37 DEG C. for 24 h. Discard the medium in the wells, fix with 90% alcohol at room temperature for 30 min, stain with 0.1% crystal violet at room temperature for 10 min, rinse with clear water, gently wipe off the non-migrated cells in the upper layer with a cotton swab, observe under a microscope and select four fields of view to take pictures and count. Calculate the migration inhibition rate (MIR) of the cells according to the following formula: […]
(§3) The test was repeated independently three times. Mean±SD was calculated based on the test results. Statistical t test was done. Here, “the test was repeated independently three times” means that every dose of any type of cells was tested repeatedly three times, and then the above formula was used to calculate the number of migrated cells (Mean±SD). Value P was used to express statistical difference. The statistical significance of the results is a method for estimating how true the results are (the totality can be represented), *P<0.05 means significant difference, and **P<0.01 means very significant difference.

[10] = system: A549 cells of lung cancer; test: transwell migration test; settings: dose 10 (μM), 24 h
Description: as §2, §3

[11] = system: MDA-MB-231 cells of breast cancer; test: transwell migration test; settings: dose 10 (μM), 24 h
Description: as §2, §3

[12] = system: MGC803 cells of stomach cancer; test: transwell migration test; settings: 24 h
Description: as §2, §3

[13] = system: SCC4 cells of head and neck cancer; test: transwell migration test; settings: dose 10 (μM), 24 h
Description: as §2, §3

[14] = system: SW579 cells of thyroid cancer; test: transwell migration test; settings: dose 10 (μM), 24 h
Description: as §2, §3

[15] = system: TE13 cells of esophageal squamous cell carcinoma; test: transwell migration test; settings: dose 10 (μM), 24 h
Description: as §2, §3

[16] = system: UOK262 cells of kidney cancer; test: transwell migration test; settings: dose 10 (μM), 24 h
Description: as §2, §3

[17] = system: A431 cells of skin cancer; test: Matrigel transwell invasion test; settings: dose 10 (unit not given), 24 h
Description: (§4) Dilute 10 mg/mL Matrigel with culture medium at 1:3, spread it on membranes of transwell cells and dry it in the air at room temperature. Use trypsin to digest and collect SCC4 cells of head and neck cancer, SW579 cells of thyroid cancer, A549 cells of lung cancer, TE13 cells of esophageal squamous cell carcinoma, MGC803 cells of stomach cancer, MDA-MB-231 cells of breast cancer, UOK262 cells of kidney cancer, and A431 cells of skin cancer of human, which were cultured to the logarithmic phase, wash with PBS twice and re-suspend with a blank culture medium. Adjust cell concentration to 1×10^5 cells/mL. Inoculate the cells to transwell cells, 100 μL per well, and meanwhile add micropeptides HMMW I to IX at different doses to every cell. Add 0.6 mL of complete medium containing 10% FBS to the transwell cells to stimulate cell invasion, and culture in 5% CO2 at 37 DEG C. for 24 h. Discard the medium in the wells, fix with 90% alcohol at room temperature for 30 min, stain with 0.1% crystal violet at room temperature for 10 min, rinse with clear water, gently wipe off the non-invaded cells in the upper layer with a cotton swab, observe under a microscope and select four fields of view to take pictures and count. Calculate the invasion inhibition rate (IIR) of the cells according to the following formula:
(§5) [formula] where Ntest is the number of invaded cells in the test groups (the groups at a dose of 1, 4 or 16 μM in the table), Ncontrol is the number of invaded cells in the blank control groups (the groups at a dose of 0 μM in the table). The test was repeated independently three times. Mean±SD was calculated based on the test results. Statistical t test was done. Value P was used to express statistical difference. The statistical significance of the results is a method for estimating how true the results are (the totality can be represented), *P<0.05 means significant difference, and **P<0.01 means very significant difference.

[18] = system: A549 cells of lung cancer; test: Matrigel transwell invasion test; settings: dose 10 (unit not given), 24 h
Description: as §4, §5

[19] = system: MDA-MB-231 cells of breast cancer; test: Matrigel transwell invasion test; settings: dose 10 (unit not given), 24 h
Description: as §4, §5

[20] = system: MGC803 cells of stomach cancer; test: Matrigel transwell invasion test; settings: dose 10 (unit not given), 24 h
Description: as §4, §5

[21] = system: SCC4 cells of head and neck cancer; test: Matrigel transwell invasion test; settings: dose 10 (unit not given), 24 h
Description: as §4, §5

[22] = system: SW579 cells of thyroid cancer; test: Matrigel transwell invasion test; settings: dose 10 (unit not given), 24 h
Description: as §4, §5

[23] = system: TE13 cells of esophageal squamous cell carcinoma; test: Matrigel transwell invasion test; settings: dose 10 (unit not given), 24 h
Description: as §4, §5

[24] = system: UOK262 cells of kidney cancer; test: Matrigel transwell invasion test; settings: dose 10 (unit not given), 24 h
Description: as §4, §5

`CC(=O)O[C@H]1C(=O)[C@@]2(C)[C@H]([C@H](OC(=O)c3ccccc3)[C@]3(O)C[C@H](OC(=O)[C@H](O)[C@@H](NC(=O)c4ccccc4)c4ccccc4)C(C)=C1C3(C)C)[C@]1(OC(C)=O)CO[C@@H]1C[C@@H]2O` [Taxol, taxol, reference compound] showed an inhibition at 10 µg/mL [1] of 85.2%, an inhibition at 10 µg/mL [2] of 84.3% and an inhibition at 10 µg/mL [3] of 83.9%. For the same compound, the inhibition at 10 µg/mL [4] was 81.3%, the inhibition at 10 µg/mL [5] was 87% and the inhibition at 10 µg/mL [6] was 82.8%. The inhibition at 10 µg/mL [7] was 79.2% and the inhibition at 10 µg/mL [8] was 83.9%.
In the case of “Avastin: comparison group in the migration and invasion tables; not described in the text [reference compound]”, the migration inhibition rate [9] is reported as 64.63%, the migration inhibition rate [10] is reported as 66.21% and the migration inhibition rate [11] is reported as 62.19%. For the same compound, the migration inhibition rate [12] was 71.25%, the migration inhibition rate [13] was 68.64% and the migration inhibition rate [14] was 59.81%. For the same compound, the migration inhibition rate [15] was 58.19%, the migration inhibition rate [16] was 61.39% and the invasion inhibition rate [17] was 70.39%. It also gave an invasion inhibition rate [18] of 61.35%, an invasion inhibition rate [19] of 70.03% and an invasion inhibition rate [20] of 63.48%. For the same compound, the invasion inhibition rate [21] was 68.41%, the invasion inhibition rate [22] was 67.40% and the invasion inhibition rate [23] was 69.31%. The invasion inhibition rate [24] was 72.16%.
